Test results: patent publication US7247617B2, “Sixteen-member macrolide antiinfective agents” (Kosan Biosciences Incorporated, priority 2004, dated 2007)

What was measured:
S. pneumoniae = test: Biological activity against bacterial strains: S. pneumoniae; assay type: cell-based, Streptococcus pneumoniae; parameters: Biological Activity, S. pneumoniae ATCC6301 / Biological Activity, S. pneumoniae ATCC700671 / Biological Activity, S. pneumoniae ATCC700676* / Biological Activity, S. pneumoniae ATCC700677* / Biological Activity, S. pneumoniae ATCC700905* / Biological Activity, S. pneumoniae ATCC700906* / Biological Activity, S. pneumoniae ATCC49619: unit not given here; conditions: for Biological Activity, S. pneumoniae ATCC6301: strain ATCC6301; for Biological Activity, S. pneumoniae ATCC49619: strain ATCC49619; for Biological Activity, S. pneumoniae ATCC700671: strain ATCC700671; for Biological Activity, S. pneumoniae ATCC700676*: strain ATCC700676, macrolide resistant strain; for Biological Activity, S. pneumoniae ATCC700677*: strain ATCC700677, macrolide resistant strain; for Biological Activity, S. pneumoniae ATCC700905*: strain ATCC700905, macrolide resistant strain; for Biological Activity, S. pneumoniae ATCC700906*: strain ATCC700906, macrolide resistant strain
S. epidermidis = test: Biological activity against bacterial strains: S. epidermidis; assay type: cell-based, Staphylococcus epidermidis; conditions: strain ATCC12228
E. faecalis = test: Biological activity against bacterial strains: E. faecalis; assay type: cell-based, Enterococcus faecalis; conditions: strain ATCC51575
S. aureus = test: Biological activity against bacterial strains: S. aureus; assay type: cell-based, Staphylococcus aureus; parameters: unit not given here; conditions: for Biological Activity, S. aureus ATCC6538p: strain ATCC6538p; for Biological Activity, S. aureus ATCC14154*: strain ATCC14154, macrolide resistant strain; for Biological Activity, S. aureus ATCC29213: strain ATCC29213; for Biological Activity, S. aureus ATCC33591*: strain ATCC33591, macrolide resistant strain; for Biological Activity, S. aureus ATCCBAA-39*: strain ATCCBAA-39, macrolide resistant strain; for Biological Activity, S. aureus ATCCBAA-44*: strain ATCCBAA-44, macrolide resistant strain
Haemophilus Influenzae = test: H. influenzae Activity; assay type: cell-based; conditions: for potency against H. influenzae (in words): compared to compound A, OMT and Ketek

Compound	Biological Activity, S. pneumoniae ATCC6301 (S. pneumoniae)	Biological Activity, S. pneumoniae ATCC49619 (S. pneumoniae)	Biological Activity, S. pneumoniae ATCC700671 (S. pneumoniae)	Biological Activity, S. pneumoniae ATCC700676* (S. pneumoniae)	Biological Activity, S. pneumoniae ATCC700677* (S. pneumoniae)	Biological Activity, S. pneumoniae ATCC700905* (S. pneumoniae)	Biological Activity, S. pneumoniae ATCC700906* (S. pneumoniae)	Biological Activity, S. epidermidis ATCC12228 (S. epidermidis)	Biological Activity, E. faecalis ATCC51575 (E. faecalis)	Biological Activity, S. aureus ATCC6538p (S. aureus)	Biological Activity, S. aureus ATCC14154* (S. aureus)	Biological Activity, S. aureus ATCC29213 (S. aureus)	Biological Activity, S. aureus ATCC33591* (S. aureus)	Biological Activity, S. aureus ATCCBAA-39* (S. aureus)	Biological Activity, S. aureus ATCCBAA-44* (S. aureus)	H. influenzae Activity, strain ATCC9006 (Haemophilus Influenzae)	H. influenzae Activity, strain ATCC49766 (Haemophilus Influenzae)	H. influenzae Activity, strain EH001 (Haemophilus Influenzae)	H. influenzae Activity, strain EH002 (Haemophilus Influenzae)	H. influenzae Activity, strain EH003 (Haemophilus Influenzae)	other results
CCC1OC(=O)CC(O)C(C)C(OC2OC(C)C(O)C(N(C)C)C2O)C(CC=O)CC(C)C(=NOCC=Cc2ccc3nccnc3c2)C=CC(C)=CC1CO (centres unmarked) [Compound H]	0.025	0.025	0.049	0.049	>12.5	0.049	>12.5	0.20	>12.5	0.20	0.39	0.39	>12.5	>12.5	>12.5						
CC[C@H]1OC(=O)C[C@@H](O)[C@H](C)[C@@H](OC2OC(C)C(O)C(N(C)C)C2O)[C@@H](CC=O)C[C@@H](C)C(=N/OCc2ccc(F)cc2)/C=C/C(C)=C/C1CO (some centres unmarked) [Compound IId]	0.025	0.2	0.2	0.025	1.56	0.2	>12.5	0.78	>12.5	0.39	1.56	1.56	>12.5	>12.5	>12.5						
CCC1OC(=O)CC(O)C(C)C(OC2OC(C)C(O)C(N(C)C)C2O)C(CC=O)CC(C)C(=NOCC=Cc2cnc3ccccc3c2)C=CC(C)=CC1CO (single isomer, unassigned) [Compound F]	0.025	0.025	0.049	0.049	>12.5	0.049	>12.5	0.049	>12.5	0.098	0.39	0.39	>12.5	>12.5	>12.5						
CC[C@H]1OC(=O)C[C@@H](O)[C@H](C)[C@@H](O[C@@H]2O[C@H](C)[C@@H](O[C@H]3C[C@@](C)(O)[C@@H](O)[C@H](C)O3)[C@H](N(C)C)[C@H]2O)[C@@H](CC=O)C[C@@H](C)C(=O)/C=C/C(C)=C/[C@@H]1CO[C@@H]1O[C@H](C)[C@@H](O)[C@@H](OC)[C@H]1OC [Tyl, tylosin, reference compound]	0.098	0.098	0.20	0.20	>12.5	0.20	>12.5	0.39	>12.5	0.20	1.56	1.56	>12.5	>12.5	>12.5						
CCC1OC(=O)CC(O)C(C)C(OC2OC(C)C(O)C(N(C)C)C2O)C(CCN2CC(C)CC(C)C2)CC(C)C(=NOCCCOc2ccc3ncccc3c2)C=CC(C)=CC1CO (centres unmarked) [Compound R]	6.25	6.25	6.25	>12.5	>12.5	>12.5	>12.5	>12.5	>12.5	12.5	>12.5	>12.5	>12.5	>12.5	>12.5						
CCC1OC(=O)CC(O)C(C)C(OC2OC(C)C(O)C(N(C)C)C2O)C(CCN2CC(C)CC(C)C2)CC(C)C(=NOCCCOc2ccc3ncccc3c2)C=CC(C)=CC1COC1OC(C)C(O)C(OC)C1OC (single isomer, unassigned) [Compound L]	0.01	0.025	0.01	0.049	0.025	0.098	>12.5	0.20	>12.5	0.20	0.20	0.20	>12.5	>12.5	>12.5						
CC[C@H]1OC(=O)[C@H](C)C(=O)[C@H](C)[C@@H](O[C@@H]2O[C@H](C)C[C@H](N(C)C)[C@H]2O)[C@](C)(OC)C[C@@H](C)C(=O)[C@H](C)[C@H]2N(CCCCn3cnc(-c4cccnc4)c3)C(=O)O[C@]12C [Ketek, telithromycin, reference compound]																1.56	3.12	1.56	6.25	1.56	
CC[C@H]1OC(=O)[C@H](C)[C@@H](O[C@H]2C[C@@](C)(OC)[C@@H](O)[C@H](C)O2)[C@H](C)[C@@H](O[C@@H]2O[C@H](C)C[C@H](N(C)C)[C@H]2O)[C@](C)(O)C[C@@H](C)C(=O)[C@H](C)[C@@H](O)[C@]1(C)O [Ery A, erythromycin A, reference compound]	0.025	0.049	0.049	6.25	6.25	3.12		0.20		0.098		0.20				1.56	6.25	3.12	6.25	3.12	
CCC1OC(=O)CC(O)C(C)C(OC2OC(C)C(O)C(N(C)C)C2O)C(CC=O)CC(C)C(=NOCCCOc2ccc3ncccc3c2)C=CC(C)=CC1CN(C)C (single isomer, unassigned) [Compound Y]	0.025	0.025	0.098	0.025	>12.5	0.025	>12.5									1.56	3.12	3.12	6.25	3.12	activity / potency against S. pneumoniae (in words) (S. pneumoniae): essentially remained unchanged; potency against H. influenzae (in words) (Haemophilus Influenzae): improved potency against H. influenzae, to a level similar to OMT and Ketek™
CCC1OC(=O)CC(O)C(C)C(OC2OC(C)C(O)C(N(C)C)C2O)C(CC=O)CC(C)C(=NOCCCOc2ccc3ncccc3c2)C=CC(C)=CC1CN(C)C (single isomer, unassigned) [Compound Z]	0.025	0.049	0.049	0.025	>12.5	0.025	>12.5									1.56	3.12	3.12	3.12	1.56	activity / potency against S. pneumoniae (in words) (S. pneumoniae): essentially remained unchanged; potency against H. influenzae (in words) (Haemophilus Influenzae): improved potency against H. influenzae, to a level similar to OMT and Ketek™
